The results in this text go back to publication PMC4503722, “Novel Phenotypic Outcomes Identified for a Public Collection of Approved Drugs from a Publicly Accessible Panel of Assays” (PLoS ONE, 2015).

Where two headings read alike, the source gives them in different places.

For one assay, the system named is SNU-C1. The assay is described as follows: cells. It is filed as cell-based. The note with it: assay number 30.
Another assay concerns HCT116. The assay is described as follows: cells. Conditions: assay number 25; basal. It is filed as cell-based.
Assay [1] concerns endothelial tube formation in co-cultures of ECFCs and ADSCs treated with VEGF. Nature of the assay: cells. The class given is cell-based, human.
Another assay deals with HeLa cells. Nature of the assay: cells. It is filed as cell-based. The note with it: for Hela CellCycMod PI 2N IC50/EC50: assay number 14; for Hela CellCycMod PI 4N IC50/EC50: assay number 16; for Hela CellCycMod PI MI IC50/EC50: assay number 17; for Hela CellCycMod PI Cell Number IC50/EC50: assay number 18.
In the next assay the target is T1, hGSK3b (Homo sapiens, UniProt P49841).
T1 construct: purchased Cerep (LANCE kinase assay platform, contract assay)
Nature of the assay: Cerep LANCE kinase assay hGSK3b (S1 assay 34). It is filed as biochemical. Conditions: assay number 34. For orientation: TR-FRET usually uses a lanthanide donor and a delayed reading to cut background.

Another assay deals with T2, hFLT3 (Homo sapiens, UniProt P36888).
T2 construct: purchased Cerep (LANCE kinase assay platform, contract assay)
Nature of the assay: Cerep LANCE kinase assay hFLT3 (S1 assay 35). It is filed as biochemical. The note with it: assay number 35.

For a further assay, the system named is STC-1 cell line. The class given is cell-based, mouse. Conditions: assay number 13.
A further assay has as its target T3, hJAK2 (Homo sapiens, UniProt O60674).
T3 construct: purchased Cerep (LANCE kinase assay platform, contract assay)
Nature of the assay: Cerep LANCE kinase assay hJAK2 (S1 assay 33). The note with it: assay number 33. The class given is biochemical.

Another assay deals with RKO. The assay is described as follows: cells. The class given is cell-based. The note with it: assay number 29.
A further assay deals with SW480. The assay is described as follows: cells. The note with it: assay number 24. It is filed as cell-based.
In a further assay the test system is DLD-1. Nature of the assay: cells. It is filed as cell-based. The note with it: assay number 23.
For assay [2], the system named is ECFC/ADSC co-culture cell nuclei number.
The subject of assay [3] is HCT116 cells treated with a GSK3β inhibitor. Nature of the assay: cells. The class given is cell-based. The note with it: assay number 26; GSK3b inhibitor pretreated.
The subject of another assay is HT-29. The assay is described as follows: cells. It is filed as cell-based. The note with it: assay number 28.
The target in a further assay is T4, hKDR (Homo sapiens, UniProt P35968).
T4 construct: purchased Cerep (LANCE kinase assay platform, contract assay)
Nature of the assay: Cerep LANCE kinase assay hKDR (S1 assay 32). The note with it: assay number 32. It is filed as biochemical.

The subject of a further assay is NCI-H716 cells. The assay is described as follows: cells. It is filed as cell-based, Human. The note with it: assay number 12.
The next assay addresses T5, hp70S6K1 (RPS6KB1) (Homo sapiens, UniProt P23443).
T5 construct: purchased Cerep (LANCE kinase assay platform, contract assay)
Nature of the assay: Cerep LANCE kinase assay hp70S6K1 (S1 assay 31). The class given is biochemical. The note with it: assay number 31.

The subject of assay [4] is alkaline phosphatase (ALP) activity in C2C12 cells. It is filed as cell-based. Conditions: assay number 6; concentration response.
The subject of another assay is Colo320. Nature of the assay: cells. The class given is cell-based. The note with it: assay number 27.
For assay [5], the system named is nuclear β-catenin in C2C12 cells. Nature of the assay: cells. The class given is cell-based. The note with it: assay number 5; concentration response.
Assay [6] concerns INS-1E cells. The assay is described as follows: cells. It is filed as cell-based, rat.
The test system of assay [7] is INS-1E cells. The class given is cell-based, rat.
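For 5mMGluc INS1E SecretionMod IC50/EC50 in this document: secreted insulin quantified by homogeneous immunoassay.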

T4 sequence (P35968 20-1356): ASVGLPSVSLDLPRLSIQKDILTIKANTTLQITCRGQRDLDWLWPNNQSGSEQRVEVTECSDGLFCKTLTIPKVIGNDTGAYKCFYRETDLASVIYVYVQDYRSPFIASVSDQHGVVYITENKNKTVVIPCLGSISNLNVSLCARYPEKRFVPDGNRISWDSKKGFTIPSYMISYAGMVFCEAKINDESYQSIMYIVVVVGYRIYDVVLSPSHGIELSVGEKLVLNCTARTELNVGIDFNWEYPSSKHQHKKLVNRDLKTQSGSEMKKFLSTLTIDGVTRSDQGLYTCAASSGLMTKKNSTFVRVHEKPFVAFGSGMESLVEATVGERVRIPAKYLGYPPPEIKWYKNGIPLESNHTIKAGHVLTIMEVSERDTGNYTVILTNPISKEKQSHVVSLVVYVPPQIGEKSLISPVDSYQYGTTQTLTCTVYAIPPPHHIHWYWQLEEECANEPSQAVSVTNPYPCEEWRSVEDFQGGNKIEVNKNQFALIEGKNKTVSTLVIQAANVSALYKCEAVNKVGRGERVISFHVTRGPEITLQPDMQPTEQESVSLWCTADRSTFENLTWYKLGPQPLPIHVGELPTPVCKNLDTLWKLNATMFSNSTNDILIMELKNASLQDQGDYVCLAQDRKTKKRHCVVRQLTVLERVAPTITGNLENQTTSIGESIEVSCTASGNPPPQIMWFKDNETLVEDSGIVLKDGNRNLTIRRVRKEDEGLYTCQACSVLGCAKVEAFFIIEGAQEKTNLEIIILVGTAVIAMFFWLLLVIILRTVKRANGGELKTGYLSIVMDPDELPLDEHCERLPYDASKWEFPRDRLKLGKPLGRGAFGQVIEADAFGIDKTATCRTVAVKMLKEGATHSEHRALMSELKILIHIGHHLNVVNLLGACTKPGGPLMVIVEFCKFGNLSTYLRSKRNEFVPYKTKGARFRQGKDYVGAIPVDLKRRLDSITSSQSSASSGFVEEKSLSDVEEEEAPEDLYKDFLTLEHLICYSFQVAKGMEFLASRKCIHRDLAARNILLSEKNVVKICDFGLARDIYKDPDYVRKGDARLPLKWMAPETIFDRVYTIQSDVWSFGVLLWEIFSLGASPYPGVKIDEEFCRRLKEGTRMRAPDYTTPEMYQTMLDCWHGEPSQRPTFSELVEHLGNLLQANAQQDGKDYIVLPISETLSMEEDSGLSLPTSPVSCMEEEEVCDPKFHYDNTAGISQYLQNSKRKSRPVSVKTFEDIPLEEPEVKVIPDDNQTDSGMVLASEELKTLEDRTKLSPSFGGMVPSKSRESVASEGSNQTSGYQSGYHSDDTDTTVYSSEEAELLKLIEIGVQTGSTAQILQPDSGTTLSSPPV
T3 sequence (O60674 whole entry): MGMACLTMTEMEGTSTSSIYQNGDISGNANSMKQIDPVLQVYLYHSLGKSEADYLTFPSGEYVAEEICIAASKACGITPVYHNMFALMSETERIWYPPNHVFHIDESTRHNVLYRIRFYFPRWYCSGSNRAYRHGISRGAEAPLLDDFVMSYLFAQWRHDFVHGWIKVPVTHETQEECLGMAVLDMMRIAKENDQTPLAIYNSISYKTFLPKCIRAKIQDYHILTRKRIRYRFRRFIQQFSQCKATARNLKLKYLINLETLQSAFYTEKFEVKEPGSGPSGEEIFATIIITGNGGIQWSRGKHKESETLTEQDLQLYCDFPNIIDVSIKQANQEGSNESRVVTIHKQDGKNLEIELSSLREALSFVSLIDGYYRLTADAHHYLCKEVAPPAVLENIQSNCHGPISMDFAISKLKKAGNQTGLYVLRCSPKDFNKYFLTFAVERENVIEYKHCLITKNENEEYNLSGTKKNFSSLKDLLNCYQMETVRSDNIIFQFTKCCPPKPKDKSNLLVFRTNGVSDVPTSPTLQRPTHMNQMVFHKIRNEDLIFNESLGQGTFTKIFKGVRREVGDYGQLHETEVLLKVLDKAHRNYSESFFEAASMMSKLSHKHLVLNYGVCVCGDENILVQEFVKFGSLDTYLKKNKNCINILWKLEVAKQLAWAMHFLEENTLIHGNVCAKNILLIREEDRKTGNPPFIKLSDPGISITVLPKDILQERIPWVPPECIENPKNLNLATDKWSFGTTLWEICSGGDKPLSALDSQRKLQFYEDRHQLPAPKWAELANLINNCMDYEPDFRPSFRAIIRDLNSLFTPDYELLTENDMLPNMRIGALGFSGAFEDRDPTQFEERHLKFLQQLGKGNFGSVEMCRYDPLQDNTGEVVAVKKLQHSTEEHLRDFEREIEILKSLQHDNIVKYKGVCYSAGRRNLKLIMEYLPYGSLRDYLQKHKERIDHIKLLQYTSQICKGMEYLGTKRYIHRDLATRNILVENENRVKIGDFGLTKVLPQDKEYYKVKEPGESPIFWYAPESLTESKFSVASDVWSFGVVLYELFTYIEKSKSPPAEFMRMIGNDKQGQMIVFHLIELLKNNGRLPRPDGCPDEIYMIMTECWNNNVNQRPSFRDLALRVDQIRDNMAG
T1 sequence (P49841 whole entry): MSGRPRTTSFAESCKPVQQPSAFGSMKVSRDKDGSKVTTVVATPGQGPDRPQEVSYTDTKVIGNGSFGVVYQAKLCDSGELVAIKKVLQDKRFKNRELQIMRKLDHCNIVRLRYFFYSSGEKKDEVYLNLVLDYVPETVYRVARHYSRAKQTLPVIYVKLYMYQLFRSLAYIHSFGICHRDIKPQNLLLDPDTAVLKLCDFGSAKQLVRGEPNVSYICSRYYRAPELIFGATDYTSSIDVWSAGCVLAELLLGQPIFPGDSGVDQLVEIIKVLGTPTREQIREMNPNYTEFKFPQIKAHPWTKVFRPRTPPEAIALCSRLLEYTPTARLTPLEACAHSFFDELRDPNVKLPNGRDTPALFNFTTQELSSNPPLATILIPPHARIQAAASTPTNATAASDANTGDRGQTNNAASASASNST
T2 sequence (P36888 27-993): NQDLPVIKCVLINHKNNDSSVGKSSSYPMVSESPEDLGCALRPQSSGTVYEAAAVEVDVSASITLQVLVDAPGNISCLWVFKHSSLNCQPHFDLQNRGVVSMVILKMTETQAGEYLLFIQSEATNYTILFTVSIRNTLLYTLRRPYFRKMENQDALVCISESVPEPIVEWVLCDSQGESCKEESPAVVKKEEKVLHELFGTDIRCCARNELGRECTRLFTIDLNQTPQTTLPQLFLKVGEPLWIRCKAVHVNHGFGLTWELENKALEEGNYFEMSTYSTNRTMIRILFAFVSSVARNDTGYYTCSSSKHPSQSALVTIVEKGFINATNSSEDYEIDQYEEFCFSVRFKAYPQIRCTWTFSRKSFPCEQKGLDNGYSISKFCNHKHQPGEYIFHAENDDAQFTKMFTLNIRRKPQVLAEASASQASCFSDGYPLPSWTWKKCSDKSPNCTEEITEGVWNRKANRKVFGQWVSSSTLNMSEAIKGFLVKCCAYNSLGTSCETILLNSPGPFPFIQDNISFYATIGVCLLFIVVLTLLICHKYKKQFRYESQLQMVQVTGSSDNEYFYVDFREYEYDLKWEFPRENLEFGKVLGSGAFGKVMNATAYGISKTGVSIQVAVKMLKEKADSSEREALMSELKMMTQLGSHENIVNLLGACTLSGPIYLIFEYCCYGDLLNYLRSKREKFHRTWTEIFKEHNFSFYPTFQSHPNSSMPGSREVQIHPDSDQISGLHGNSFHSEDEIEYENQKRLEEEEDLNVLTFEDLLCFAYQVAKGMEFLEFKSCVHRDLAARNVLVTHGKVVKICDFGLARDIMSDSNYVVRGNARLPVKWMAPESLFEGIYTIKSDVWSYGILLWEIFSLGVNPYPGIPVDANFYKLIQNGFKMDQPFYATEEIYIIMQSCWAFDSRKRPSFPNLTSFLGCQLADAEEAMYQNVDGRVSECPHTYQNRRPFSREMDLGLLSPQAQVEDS
T5 sequence (P23443 whole entry): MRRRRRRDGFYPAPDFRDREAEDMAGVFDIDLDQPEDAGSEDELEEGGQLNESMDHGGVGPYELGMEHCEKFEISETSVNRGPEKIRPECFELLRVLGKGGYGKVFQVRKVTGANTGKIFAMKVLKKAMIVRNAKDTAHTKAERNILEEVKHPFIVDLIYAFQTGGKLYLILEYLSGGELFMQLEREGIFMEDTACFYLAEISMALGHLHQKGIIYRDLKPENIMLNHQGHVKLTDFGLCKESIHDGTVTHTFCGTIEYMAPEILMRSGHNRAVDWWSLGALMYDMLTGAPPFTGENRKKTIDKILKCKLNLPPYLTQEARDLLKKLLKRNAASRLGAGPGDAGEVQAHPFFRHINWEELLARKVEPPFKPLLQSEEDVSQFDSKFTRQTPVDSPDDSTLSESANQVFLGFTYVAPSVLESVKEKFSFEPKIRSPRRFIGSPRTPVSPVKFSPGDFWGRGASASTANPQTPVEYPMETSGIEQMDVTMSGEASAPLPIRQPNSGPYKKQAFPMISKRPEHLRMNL

Regarding `CCCCCCCCCCCCCC[N+](C)(C)C.[Br-]` [NCGC00166121-03], the “Basal_Viability ATP SNU-C1 IC50/EC50” value in the assay with SNU-C1 is on record as 0.00517 µM. For the same compound, the “Basal_Viability ATP HCT116 IC50/EC50” value in the assay on HCT116 was determined as 2.287 µM. Further, the “VEGF_ADSC\ECFC Angio CD31 TubeArea IC50/EC50” value in [1] is 1.9016 µM. Further, in the assay on HeLa cells, the “Hela CellCycMod PI 2N IC50/EC50” value was more than 10 µM, the “Hela CellCycMod PI 4N IC50/EC50” value is on record as more than 10 µM, the “Hela CellCycMod PI MI IC50/EC50” value was more than 10 µM and the “Hela CellCycMod PI Cell Number IC50/EC50” value stood at 3.3211 µM. The “Hela CellCycMod PI S Phase IC50/EC50” value in the assay with HeLa cells (assay number 15, S phase) is listed as more than 10 µM. The “hGSK3b LANCE IC50/EC50” value on hGSK3b was more than 20 µM. For the same compound, the “hFLT3 LANCE IC50/EC50” value on hFLT3 was more than 20 µM. In addition, the “mSTC-1 GLP1 Secretion IC50/EC50” value with STC-1 cell line is given as more than 40 µM. For the same compound, the “hJAK2 LANCE IC50/EC50” value on hJAK2 is reported as more than 20 µM. The “Basal_Viability ATP RKO IC50/EC50” value in the assay on RKO came out at 0.1473 µM. Besides, the “Basal_Viability ATP SW480 IC50/EC50” value with SW480 was found to be 0.9328 µM. In the assay on DLD-1, the “Basal_Viability ATP DLD-1 IC50/EC50” value came to 0.4746 µM. Further, the “VEGF_ADSC\ECFC Angio Hoechst NucArea IC50/EC50” value in assay [2] is 6.684 µM. For the same compound, the “GSK3b inh pretreated_Viability ATP HCT116 IC50/EC50” value in assay [3] is reported as 0.754 µM. The “Basal_Viability ATP HT-29 IC50/EC50” value in the assay on HT-29 was 1.32 µM. Besides, the “hKDR LANCE IC50/EC50” value at hKDR is given as more than 20 µM. Moreover, the “hNCI-H716 GLP1 Secretion IC50/EC50” value in the assay with NCI-H716 cells is 18.5931 µM. Further, the “hp70S6K1 LANCE IC50/EC50” value at hp70S6K1 (RPS6KB1) is listed as more than 20 µM. The “WntCondMedia_Alk Phos C2C12 IC50/EC50” value in assay [4] is given as more than 20 µM. The “Basal_Viability ATP Colo 320 IC50/EC50” value with Colo320 is 2.516 µM. For the same compound, the “WntCondMedia_bCatenin C2C12 IC50/EC50” value in assay [5] is more than 20 µM.

With `CN(C)CCOC(c1ccc(Cl)cc1)c1ccccn1` (centres unmarked) [NCGC00166141-06], the “5mMGluc_INS1E SecretionMod IC50/EC50” value in the assay on INS-1E cells [6] (assay number 8, 5 mM glucose) amounted to 21.3759 µM. For the same compound, the “0.1mMGluc_INS1E SecretionMod Act IC50/EC50” value with INS-1E cells [7] (assay number 9, 0.1 mM glucose) is reported as more than 33.33 µM.

In the case of `CC(C)(Cc1c[nH]c2ccccc12)NCC(O)COc1ccccc1C#N` (centres unmarked) [NCGC00167817-02], the “5mMGluc_INS1E SecretionMod IC50/EC50” value in the assay with INS-1E cells [6] (assay number 8, 5 mM glucose) was 15.0119 µM. Moreover, in the assay with INS-1E cells [7] (assay number 9, 0.1 mM glucose), the “0.1mMGluc_INS1E SecretionMod Act IC50/EC50” value is more than 33.33 µM.

For the compound `CN(C)CCC[C@@]1(c2ccc(F)cc2)OCc2cc(C#N)ccc21.O=C(O)C(=O)O` [NCGC00178555-02], in the assay on INS-1E cells [6] (assay number 8, 5 mM glucose), the “5mMGluc_INS1E SecretionMod IC50/EC50” value stood at 5.447 µM. For the same compound, the “0.1mMGluc_INS1E SecretionMod Act IC50/EC50” value with INS-1E cells [7] (assay number 9, 0.1 mM glucose) is more than 33.33 µM.

For the compound `CCCCN1CCCCC1C(=O)Nc1c(C)cccc1C` (centres unmarked) [NCGC00178579-04], in the assay with INS-1E cells [6] (assay number 8, 5 mM glucose), the “5mMGluc_INS1E SecretionMod IC50/EC50” value worked out at 27.1706 µM. The “0.1mMGluc_INS1E SecretionMod Act IC50/EC50” value in the assay on INS-1E cells [7] (assay number 9, 0.1 mM glucose) was more than 33.33 µM.

As for `O=C(NN1CCCC1)NS(=O)(=O)c1ccc(Cl)cc1` [NCGC00182989-01], the “5mMGluc_INS1E SecretionMod IC50/EC50” value with INS-1E cells [6] is 14.8718 µM. Moreover, the “0.1mMGluc_INS1E SecretionMod Act IC50/EC50” value in the assay on INS-1E cells [7] is more than 33.33 µM.

In the case of `CC(C)(C)c1nnc(NS(=O)(=O)c2ccccc2)s1` [NCGC00182991-01], in the assay with INS-1E cells [6] (assay number 8, 5 mM glucose), the “5mMGluc_INS1E SecretionMod IC50/EC50” value was 13.1318 µM. Moreover, the “0.1mMGluc_INS1E SecretionMod Act IC50/EC50” value with INS-1E cells [7] (assay number 9, 0.1 mM glucose) is given as more than 33.33 µM.

Regarding `Oc1ccc(CCNCCCCCCNCCc2ccccc2)cc1O` [NCGC00184998-02], the “5mMGluc_INS1E SecretionMod IC50/EC50” value with INS-1E cells [6] (assay number 8, 5 mM glucose) is given as more than 33.33 µM. For the same compound, in the assay with INS-1E cells [7] (assay number 9, 0.1 mM glucose), the “0.1mMGluc_INS1E SecretionMod Act IC50/EC50” value is more than 33.33 µM.

Consider `Cc1ccc([N+](=O)[O-])[c]2c1[O][Hg]2` [NCGC00249897-01], for which the “Basal_Viability ATP SNU-C1 IC50/EC50” value with SNU-C1 (basal) is 0.2022 µM. Besides, the “Basal_Viability ATP HCT116 IC50/EC50” value with HCT116 stood at 2.8299 µM. Besides, the “VEGF_ADSC\ECFC Angio CD31 TubeArea IC50/EC50” value in assay [1] was 0.6678 µM. Further, in the assay with HeLa cells, the “Hela CellCycMod PI 2N IC50/EC50” value is more than 10 µM, the “Hela CellCycMod PI 4N IC50/EC50” value was more than 10 µM, the “Hela CellCycMod PI MI IC50/EC50” value was determined as 1.2179 µM and the “Hela CellCycMod PI Cell Number IC50/EC50” value was 0.3851 µM. Moreover, on hGSK3b, the “hGSK3b LANCE IC50/EC50” value was determined as 8.37 µM. Besides, the “hFLT3 LANCE IC50/EC50” value at hFLT3 is 10.38 µM. Further, the “5mMGluc_INS1E SecretionMod IC50/EC50” value in the assay on INS-1E cells [6] (assay number 8, 5 mM glucose) is more than 33.33 µM. The “mSTC-1 GLP1 Secretion IC50/EC50” value with STC-1 cell line is on record as 0.0972 µM. For the same compound, the “hJAK2 LANCE IC50/EC50” value at hJAK2 is reported as more than 20 µM. For the same compound, the “Basal_Viability ATP SW480 IC50/EC50” value in the assay with SW480 (basal) was determined as 1.1294 µM. Also, in the assay with DLD-1 (basal), the “Basal_Viability ATP DLD-1 IC50/EC50” value is 1.6221 µM. Besides, in assay [2], the “VEGF_ADSC\ECFC Angio Hoechst NucArea IC50/EC50” value is recorded as 1.087 µM. For the same compound, in assay [3], the “GSK3b inh pretreated_Viability ATP HCT116 IC50/EC50” value is reported as more than 2.2222 µM. For the same compound, the “Basal_Viability ATP HT-29 IC50/EC50” value in the assay with HT-29 (basal) stood at 1.4429 µM. Also, the “hKDR LANCE IC50/EC50” value at hKDR was 16.8 µM. Moreover, the “hNCI-H716 GLP1 Secretion IC50/EC50” value with NCI-H716 cells is listed as 9.871 µM. On hp70S6K1 (RPS6KB1), the “hp70S6K1 LANCE IC50/EC50” value was more than 20 µM. In addition, the “WntCondMedia_Alk Phos C2C12 IC50/EC50” value in assay [4] is given as 0.1552 µM. The “Basal_Viability ATP Colo 320 IC50/EC50” value with Colo320 (basal) was 0.935 µM. In [5], the “WntCondMedia_bCatenin C2C12 IC50/EC50” value amounted to 1.5133 µM.

Regarding `Cl.Nc1c2c(nc3c1CCC3)CCCC2.O` [NCGC00263455-01], the “5mMGluc_INS1E SecretionMod IC50/EC50” value with INS-1E cells [6] (assay number 8, 5 mM glucose) is listed as 11.7012 µM. In addition, the “0.1mMGluc_INS1E SecretionMod Act IC50/EC50” value in the assay with INS-1E cells [7] (assay number 9, 0.1 mM glucose) is reported as more than 33.33 µM.

As for `Cc1cc2c(OCC(CNC(C)(C)C)OC(=O)c3ccccc3)cccc2[nH]1` (centres unmarked) [NCGC00263654-01], the “5mMGluc_INS1E SecretionMod IC50/EC50” value with INS-1E cells [6] (assay number 8, 5 mM glucose) worked out at 14.6026 µM. In the assay with INS-1E cells [7] (assay number 9, 0.1 mM glucose), the “0.1mMGluc_INS1E SecretionMod Act IC50/EC50” value is more than 33.33 µM.
